Assay results taken from the NIST ThermoML archive (doi:10.1016/j.jct.2012.08.014).

Conditions: Liquid, Vibrating tube method

CCC(O)CO (configuration not stated) [1,2-butanediol]
mass density [kg/m3]
Conditions | 278.15 K | 288.15 K | 298.15 K | 308.15 K | 318.15 K | 328.15 K | 338.15 K | 348.15 K | 358.15 K
100 kPa | 1013.4 | 1006.2 | 998.7 | 991.1 | 983.4 | 975.7 | 967.8 | 959.7 | 951.3
1000 kPa | 1013.7 | 1006.5 | 999.1 | 991.5 | 983.8 | 976.2 | 968.3 | 960.2 | 952
5000 kPa | 1015.7 | 1008.6 | 1001.2 | 993.7 | 986.1 | 978.6 | 970.7 | 962.8 | 954.6
10000 kPa | 1018.1 | 1011.1 | 1003.8 | 996.5 | 988.9 | 981.5 | 973.9 | 966.2 | 958.1
15000 kPa | 1020.5 | 1013.5 | 1006.3 | 999.1 | 991.7 | 984.4 | 976.8 | 969.2 | 961.4
20000 kPa | 1022.8 | 1015.9 | 1008.8 | 1001.6 | 994.3 | 987.2 | 979.8 | 972.2 | 964.5
25000 kPa | 1025 | 1018.2 | 1011.3 | 1004.1 | 997 | 989.9 | 982.6 | 975.2 | 967.5
30000 kPa | 1027.2 | 1020.5 | 1013.6 | 1006.5 | 999.4 | 992.5 | 985.3 | 978 | 970.5
35000 kPa | 1029.2 | 1022.7 | 1015.9 | 1008.9 | 1001.9 | 995.1 | 987.9 | 980.7 | 973.5
40000 kPa | 1031.2 | 1024.7 | 1018.2 | 1011.2 | 1004.4 | 997.6 | 990.5 | 983.4 | 976.2
45000 kPa | 1033.3 | 1026.7 | 1020.3 | 1013.5 | 1006.7 | 999.9 | 993.1 | 986.1 | 978.8
50000 kPa | 1035.3 | 1028.8 | 1022.5 | 1015.7 | 1009 | 1002.2 | 995.5 | 988.6 | 981.4
55000 kPa | 1037.3 | 1030.8 | 1024.5 | 1017.9 | 1011.3 | 1004.7 | 997.9 | 991.1 | 984
60000 kPa | 1039.2 | 1033 | 1026.7 | 1020 | 1013.5 | 1006.9 | 1000.3 | 993.4 | 986.5

OCCO [1,2-ethanediol]
mass density [kg/m3]
Conditions | 278.15 K | 288.15 K | 298.15 K | 308.15 K | 318.15 K | 328.15 K | 338.15 K | 348.15 K | 358.15 K
100 kPa | 1122.4 | 1115.8 | 1109 | 1102.2 | 1095.2 | 1088.2 | 1080.9 | 1073.6 | 1066.1
1000 kPa | 1122.6 | 1116 | 1109.2 | 1102.4 | 1095.4 | 1088.3 | 1081.2 | 1073.9 | 1066.2
5000 kPa | 1124.1 | 1117.6 | 1110.9 | 1104.1 | 1097.1 | 1090.2 | 1083.1 | 1075.8 | 1068.2
10000 kPa | 1126 | 1119.5 | 1112.9 | 1106.1 | 1099.2 | 1092.3 | 1085.4 | 1078.1 | 1070.7
15000 kPa | 1127.8 | 1121.5 | 1114.9 | 1108.2 | 1101.3 | 1094.4 | 1087.6 | 1080.4 | 1073.1
20000 kPa | 1129.6 | 1123.3 | – | – | – | – | 1089.8 | 1082.7 | 1075.4
25000 kPa | 1131.4 | 1125.2 | 1118.7 | 1112.1 | 1105.3 | 1098.6 | 1091.9 | 1084.9 | 1077.8
30000 kPa | 1133.1 | 1127 | 1120.6 | 1114 | 1107.3 | 1100.6 | 1094 | 1087 | 1079.9
35000 kPa | 1134.8 | 1128.8 | 1122.4 | 1115.9 | 1109.3 | – | – | – | 1082.1
40000 kPa | 1136.6 | 1130.6 | 1124.3 | 1117.7 | 1111.2 | 1104.6 | 1097.9 | 1091.3 | 1084.3
45000 kPa | 1138.2 | 1132.3 | 1126.1 | 1119.6 | 1113.1 | 1106.5 | 1099.9 | 1093.4 | 1086.5
50000 kPa | 1139.9 | 1134.1 | 1127.8 | 1121.4 | 1115 | 1108.4 | 1101.9 | 1095.3 | –
55000 kPa | 1141.6 | 1135.7 | 1129.6 | 1123.2 | – | – | 1103.9 | 1097.3 | 1090.7
60000 kPa | 1143.3 | 1137.4 | 1131.3 | 1125 | 1118.6 | 1112.1 | 1105.8 | 1099.4 | 1092.7
